Reference: ChEMBL document CHEMBL6127141, “1-Deoxynojirimycin Derivative Containing Tegafur Induced HCT-116 Cell Apoptosis through Mitochondrial Dysfunction and Oxidative Stress Pathway” (ACS Med Chem Lett, 2024)
pIC50: −log10 of the molar value. The source made the active and inactive calls. The calls are words filed in the database; no cut-off is given here.

Columns and labels:
A549 = test: Cytotoxicity against human A549 cells assessed as inhibition of cell proliferation incubated for 48 hrs by MTT assay; format: functional, cell-based; conditions: A549, 48 h
HCT-116 [1] = test: Induction of oxidative stress in human HCT-116 cells assessed as increase in MDA level at 5 to 10 uM incubated for 24 hrs by Lipid Peroxidation MDA assay; format: functional, cell-based; conditions: dose 5-10 µM
[2] = Selectivity index, ratio of IC50 for cytotoxicity against human L02 cells to IC50 for cytotoxicity against human HCT-116 cells; format: toxicity, cell-based; conditions: L02 cells and HCT-116 cells, read-out: Ratio IC50
HeLa = test: Cytotoxicity against human HeLa cells assessed as inhibition of cell proliferation incubated for 48 hrs by MTT assay; format: functional, cell-based
HCT-116 [3] = test: Inhibition of colony formation in human HCT-116 cells at 5 to 10 uM incubated for 48 hrs by crystal purple staining based analysis; format: functional, cell-based; conditions: dose 5-10 µM
HCT-116 [4] = test: Cytotoxicity against human HCT-116 cells assessed as inhibition of cell proliferation at 5 to 10 uM preincubated with NAC for 3 hrs followed by compound addition and measured after 48 hrs by MTT assay; format: functional, cell-based; conditions: dose 5-10 µM
HCT-116 [5] = test: Induction of oxidative stress in human HCT-116 cells assessed as decrease in SOD concentration at 5 to 10 uM incubated for 24 hrs; format: functional, cell-based; conditions: dose 5-10 µM
HCT-116 [6] = test: Cytotoxicity against human HCT-116 cells assessed as inhibition of cell proliferation incubated for 48 hrs by MTT assay; format: functional, cell-based; conditions: HCT-116, 48 h
HCT-116 [7] = test: Induction of DNA damage in human HCT-116 cells assessed as increase in TS protein expression at 10 uM incubated for 24 hrs by Western blot analysis; format: functional, cell-based
HCT-116 [8] = test: Induction of apoptosis in human HCT-116 cells assessed as upregulation of Bax protein level at 10 uM incubated for 24 hrs by Western blot analysis; format: functional, cell-based
HCT-116 [9] = test: Induction of ROS accumulation in human HCT-116 cells assessed as increase in green fluorescence intensity at 5 to 10 uM incubated for 24 hrs by DCFH-DA staining based fluorescence microscopic analysis; format: functional, cell-based; conditions: dose 5-10 µM
BGC-823 = test: Cytotoxicity against human BGC-823 cells assessed as inhibition of cell proliferation incubated for 48 hrs by MTT assay; format: functional, cell-based; conditions: BGC-823, 48 h
HCT-116 [10] = test: Induction of apoptosis in human HCT-116 cells assessed as apoptotic cells at 10 uM incubated for 24 hrs by Annexin V-FITC/PI staining based flow cytometric analysis relative to control; format: functional
HepG2 = test: Cytotoxicity against human HepG2 cells assessed as inhibition of cell proliferation incubated for 48 hrs by MTT assay; format: functional, cell-based; conditions: HepG2, 48 h
HCT-116 [11] = test: Induction of apoptosis in human HCT-116 cells assessed as cell contraction at 10 uM incubated for 24 hrs by Hoechst 33342 staining based fluorescence microscopic analysis; format: functional
HCT-116 [12] = test: Induction of oxidative stress in human HCT-116 cells assessed as decrease in GSH concentration at 5 to 10 uM incubated for 24 hrs; format: functional, cell-based; conditions: dose 5-10 µM
HCT-116 [13] = test: Anti-metastatic activity in human HCT-116 cells assessed as inhibition of cell migration by measuring wound healing rate at 10 uM incubated for 24 hrs by inverted fluorescence microscopic analysis relative to control; format: functional; design: scale not given: the % may be the effect or the level left
HCT-116 [14] = test: Induction of ROS accumulation in human HCT-116 cells assessed as increase in green fluorescence intensity at 5 to 10 uM preincubated with NAC for 3 hrs followed by compound addition and measured after 24 hrs by DCFH-DA staining based fluorescence microscopic analysis; format: functional, cell-based; conditions: dose 5-10 µM
HCT-116 [15] = test: Induction of apoptosis in human HCT-116 cells assessed as downregulation of Bcl2 protein level at 10 uM incubated for 24 hrs by Western blot analysis; format: functional, cell-based
HCT-116 [16] = test: Induction of apoptosis in human HCT-116 cells assessed as appearance of bright blue appearance at 10 uM incubated for 24 hrs by Hoechst 33342 staining based fluorescence microscopic analysis; format: functional, cell-based
[17] = Lipophilicity, logP of compound in n-octanol saturated PBS incubated for 24 hrs by shake-flask method based ultraviolet spectrophotometry; format: physicochemical
HCT-116 [18] = test: Induction of oxidative stress in human HCT-116 cells assessed as increase in NO level at 5 to 10 uM incubated for 24 hrs; format: functional, cell-based; conditions: dose 5-10 µM
[19] = Potency index, ratio of 1-Deoxynojirimycin IC50 to test compound IC50 for cytotoxicity against human HCT-116 cells assessed as inhibition of cell proliferation incubated for 48 hrs by MTT assay; format: functional
L02 = test: Cytotoxicity against human L02 cells assessed as inhibition of cell proliferation incubated for 48 hrs by MTT assay; format: functional, cell-based; conditions: L02, 48 h
Mitochondrial membrane = test: Induction of mitochondrial membrane potential loss in human HCT-116 cells assessed as decrease in red fluorescence at 10 uM incubated for 24 hrs by JC-1 staining based fluorescence microscopic analysis; format: cell membranes
Alpha glucosidase = Alpha glucosidase (Homo sapiens, UniProt O43451+P10253+P14410+Q2M2H8); test: Inhibition of alpha-glucosidase (unknown origin) using para-nitrophenyl-alpha-d-glucopyranoside as substrate preincubated for 5 mins followed by substrate addition and measured after 30 mins by microplate reader; format: protein assay
HCC1937 = test: Cytotoxicity against human HCC1937 cells assessed as inhibition of cell proliferation incubated for 48 hrs by MTT assay; format: functional, cell-based; conditions: HCC1937, 48 h
HCT-116 [20] = test: Induction of cell cycle arrest in human HCT-116 cells assessed as accumulation of cells at S phase at 10 uM incubated for 24 hrs by flow cytometric analysis (reference value: 4.7 %); format: functional
HCT-116 [21] = test: Induction of oxidative stress in human HCT-116 cells assessed as decrease in Nrf2 level at 10 uM incubated for 24 hrs by Western blot analysis; format: functional, cell-based
HCT-116 [22] = test: Induction of apoptosis in human HCT-116 cells assessed as apoptotic cells at 10 uM incubated for 24 hrs in presence of 1-Deoxynojirimycin by Annexin V-FITC/PI staining based flow cytometric analysis relative to control; format: functional
HCT-116 [23] = test: Induction of cell cycle arrest in human HCT-116 cells assessed as accumulation of cells at S phase at 10 uM incubated for 24 hrs in presence of 1-Deoxynojirimycin by flow cytometric analysis (reference value: 4.7 %); format: functional
HCT-116 [24] = test: Anti-metastatic activity in human HCT-116 cells assessed as inhibition of cell migration by measuring wound healing rate at 10 uM incubated for 24 hrs in presence of 1-Deoxynojirimycin by inverted fluorescence microscopic analysis relative to control; format: functional; design: scale not given: the % may be the effect or the level left
HCT-116 [25] = test: Induction of apoptosis in human HCT-116 cells assessed as apoptotic cells at 10 uM incubated for 24 hrs in presence of tegafur by Annexin V-FITC/PI staining based flow cytometric analysis relative to control; format: functional
HCT-116 [26] = test: Induction of cell cycle arrest in human HCT-116 cells assessed as accumulation of cells at S phase at 10 uM incubated for 24 hrs in presence of tegafur by flow cytometric analysis (reference value: 4.7 %); format: functional
HCT-116 [27] = test: Anti-metastatic activity in human HCT-116 cells assessed as inhibition of cell migration by measuring wound healing rate at 10 uM incubated for 24 hrs in presence of tegafur by inverted fluorescence microscopic analysis relative to control; format: functional; design: scale not given: the % may be the effect or the level left

| logP at 24 h [17] | IC50 (Alpha glucosidase) [µM] | Structure (SMILES) | pIC50 (A549) | selectivity ratio [2] | pIC50 (HeLa) | pIC50 (HCT-116 [6]) | pIC50 (BGC-823) | Activity (HCT-116 [10]) [%] | pIC50 (HepG2) | Activity (HCT-116 [13]) [%] | pIC50 (L02) | pIC50 (HCC1937) | Activity (HCT-116 [20]) [%] | also measured |
| --- | --- | --- | --- | --- | --- | --- | --- | --- | --- | --- | --- | --- | --- | --- |
| 1.02 | 2.76 | O=c1c(F)cn(C2CCCO2)c(=O)n1CCCCCCCCCCCN1C[C@H](O)[C@@H](O)[C@H](O)[C@H]1CO (some centres not stated) | 5.20 | 14.4 | 4.89 | 5.86 | 5.36 | 69.8 | 5.11 | 9.42 | 4.70 | 5.04 | 49.31 | Activity (HCT-116 [1]): Active; inhibition (HCT-116 [3]): Active; Activity (HCT-116 [4]): inactive; Activity (HCT-116 [5]): Active; Activity (HCT-116 [7]): Active; Activity (HCT-116 [8]): Active; Activity (HCT-116 [9]): Active; Activity (HCT-116 [11]): Active; Activity (HCT-116 [12]): Active; Activity (HCT-116 [14]): inactive; Activity (HCT-116 [15]): Active; Activity (HCT-116 [16]): Active; Activity (HCT-116 [18]): Active; Ratio IC50 [19]: 73; Activity (Mitochondrial membrane): Active; Activity (HCT-116 [21]): Active |
| -0.65 | 15.09 | O=c1c(F)cn(C2CCCO2)c(=O)n1CCCCCCCCN1C[C@H](O)[C@@H](O)[C@H](O)[C@H]1CO (some centres not stated) | 4.71 | 4 | 4.57 | 5.14 | 4.90 | – | 4.83 | – | 4.53 | 4.71 | – | – |
| -2.49 | 40.96 | O=c1c(F)cn(C2CCCO2)c(=O)n1CCCCCN1C[C@H](O)[C@@H](O)[C@H](O)[C@H]1CO (some centres not stated) | 4.24 | 3.6 | 4.53 | 4.81 | 4.41 | – | 4.39 | – | 4.25 | 4.36 | – | – |
| – | – | O=c1[nH]c(=O)n(C2CCCO2)cc1F (configuration not stated) [TEGAFUR] | < 4.00 | 0.27 | 4.02 | 4.05 | 4.00 | 8.99 | < 4.00 | 44.37 | 4.63 | < 4.00 | 43.81 | Activity (HCT-116 [22]): 15.17%; Activity (HCT-116 [23]): 34.84%; Activity (HCT-116 [24]): 32% |
| -0.68 | – | OC[C@H]1NC[C@H](O)[C@@H](O)[C@@H]1O [DUVOGLUSTAT] | < 4.00 | – | < 4.00 | < 4.00 | < 4.00 | 6.16 | < 4.00 | 51.91 | < 4.00 | < 4.00 | 11.29 | Activity (HCT-116 [25]): 15.17%; Activity (HCT-116 [26]): 34.84%; Activity (HCT-116 [27]): 32% |
